Data taken from paper PMC6272684, “Synthesis, Antiproliferative and Antifungal Activities of 1,2,3-Triazole-Substituted Carnosic Acid and Carnosol Derivatives” (Molecules, 2015).
≈ marks a conversion by molar mass, not a printed value.

Columns and labels:
[1] = test system: C. albicans ATCC 10231; test: Antifungal broth microdilution (CLSI M27-A3), growth inhibition; assay type: cell-based, Candida albicans
Method: (§1) The antifungal properties of compounds 1–24 against two clinical important fungal species, C. albicans ATCC 10231 and C. neoformans ATCC 32264 were investigated. Results were expressed as the percentages of inhibition of each fungus in the range 250–3.9 μg∙mL^−1 by using the standardized microbroth dilution method M-27A3 of Clinical and Laboratory Standards Institute which assures reliable and reproducible results.
(§2) For the antifungal evaluation, standardized strains from the American Type Culture Collection (ATCC), Rockville, MD, USA, were used. The microorganisms included yeasts (Candida albicans ATCC 10231 and Cryptococcus neoformans ATCC 32264). Strains were grown on Sabouraud-chloramphenicol agar slants for 48 h at 30 °C, maintained on slopes of Sabouraud-dextrose agar (SDA, Oxoid), and subcultured every 15 days to prevent pleomorphic transformations. Inocula of cell or spore suspensions were obtained according to reported procedures and adjusted to 1–5 × 10^3 cells/spores with colony forming units (CFU)/mL [29].
(§3) Broth microdilution techniques were performed in 96-well microplates according to the Clinical and Laboratory Standards Institute Reference Method for Broth Dilution Antifungal Susceptibility Testing of Yeasts, Approved Standard M27-A3 [29]. For the assay, compound test wells (CTWs) were prepared with stock solutions of each compound in DMSO (maximum concentration ≤1%), diluted with RPMI-1640, to final concentrations of 250–3.9 μg∙mL^−1. An inoculum suspension (100 μL) was added to each well (final volume in the well = 200 μL). A growth control well (GCW) (containing medium, inoculum, and the same amount of DMSO used in a CTW, but compound-free) and a sterility control well (SCW) (sample, medium, and sterile water instead of inoculum) were included for each fungus tested. Microtiter trays were incubated in a moist, dark chamber at 30 °C for 48 h for both yeasts. Microplates were read in a VERSA Max microplate reader (Molecular Devices, Sunnyvale, CA, USA). Amphotericin B (Sigma-Aldrich) was used as positive control. Tests were performed in triplicate. Reduction of growth for each compound concentration was calculated as follows: % of inhibition = 100 − (OD 405 CTW − OD 405 SCW)/(OD 405 GCW − OD 405 SCW). The means ± SEM were the results of triplicate tests. Three endpoints were defined from the assay explained above and the dose-response curves. Minimum Inhibitory concentration (MIC) resulting in total fungal growth inhibition was named MIC100 while MIC50 was defined as the minimum concentration that inhibits 50% of the fungal growth.

[2] = test system: C. neoformans ATCC 32264; test: as above; assay type: cell-based, Cryptococcus neoformans
Method: as §1, §2, §3

SMILES | Inhibition percentage against C. albicans ATCC 10231 ([1]; 3.9 μg∙mL^−1, 48 h) | Inhibition percentage against C. albicans ATCC 10231 ([1]; 7.8 μg∙mL^−1, 48 h) | Inhibition percentage against C. albicans ATCC 10231 ([1]; 15.6 μg∙mL^−1, 48 h) | Inhibition percentage against C. albicans ATCC 10231 ([1]; 62.5 μg∙mL^−1, 48 h) | Inhibition percentage against C. albicans ATCC 10231 ([1]; 125 μg∙mL^−1, 48 h) | Inhibition percentage against C. albicans ATCC 10231 ([1]; 250 μg∙mL^−1, 48 h) | Inhibition percentage against C. albicans ATCC 10231 ([1]; 31. μg∙mL^−1, 48 h) | MIC50 (minimum concentration to inhibit 50% of fungal growth), C. albicans ([1]; C. albicans ATCC 10231) | Inhibition percentage against C. neoformans ATCC 32264 ([2]; 3.9 μg∙mL^−1, 48 h) | Inhibition percentage against C. neoformans ATCC 32264 ([2]; 7.8 μg∙mL^−1, 48 h) | Inhibition percentage against C. neoformans ATCC 32264 ([2]; 15.6 μg∙mL^−1, 48 h) | Inhibition percentage against C. neoformans ATCC 32264 ([2]; 31.2 μg∙mL^−1, 48 h) | Inhibition percentage against C. neoformans ATCC 32264 ([2]; 62.5 μg∙mL^−1, 48 h) | Inhibition percentage against C. neoformans ATCC 32264 ([2]; 125 μg∙mL^−1, 48 h) | MIC50 (minimum concentration to inhibit 50% of fungal growth), C. neoformans ([2]; C. neoformans ATCC 32264) | further results
CC(C)c1cc2c(c(OC(=O)CCc3cn(CSc4ccccc4)nn3)c1OC(=O)CCc1cn(CSc3ccccc3)nn1)C13CCCC(C)(C)C1CC2OC3=O (stereo not drawn) [Compound 17, (7β)-11,12-O-(3-(((1-phenylthio)methyl)-1H-1,2,3-triazol-4-yl)-propanoyloxy)-7,20-epoxyabieta-8,11,13-trien-20-one] | 0.0% | 2.8 ± 0.6% | 4.8 ± 1.0% | 11.5 ± 0.7% | 21.2 ± 0.2% | 42.3 ± 0.7% | 6.7 ± 1.1% | >250 µg/mL | 0.0% | 0.0% | 0.0% | 0.0% | 0.0% | 11.4 ± 1.2% | >250 µg/mL | Antifungal activity against C. albicans (in words) ([1]; at the assayed concentrations (250–3.9 μg∙mL^−1)): weak effect; Inhibition percentage against C. neoformans ATCC 32264 ([2]; 250 μg∙mL^−1, 48 h): 41.1 ± 1.3%
CC(C)c1cc2c(c(OC(=O)CCCc3cn(Cc4ccc(Br)cc4)nn3)c1OC(=O)CCCc1cn(Cc3ccc(Br)cc3)nn1)C13CCCC(C)(C)C1CC2OC3=O (stereo not drawn) [Compound 22, (7β)-11,12-O-(4-(1-(4-bromobenzyl)-1H-1,2,3-triazol-4-yl)-butanoyloxy)-7,20-epoxyabieta-8,11,13-trien-20-one] | 0.0% | 2.9 ± 0.7% | 5.1 ± 0.4% | 7.0 ± 1.0% | 10.1 ± 0.8% | 12.5 ± 2.2% | 5.9 ± 0.2% | >250 µg/mL | 0.0% | 4.7 ± 0.8% | 4.8 ± 0.2% | 7.6 ± 0.9% | 28.5 ± 1.3% | 52.3 ± 2.3% | 125 µg/mL | –
C[C@@H]1[C@H](O)[C@@H](C)/C=C/C=C/C=C/C=C/C=C/C=C/C=C/[C@H](O[C@@H]2O[C@H](C)[C@@H](O)[C@H](N)[C@@H]2O)C[C@@H]2O[C@](O)(C[C@@H](O)C[C@@H](O)[C@H](O)CC[C@@H](O)C[C@@H](O)CC(=O)O[C@H]1C)C[C@H](O)[C@H]2C(=O)O [Amph B, amphotericin B, reference compound] | – | – | – | – | – | – | – | – | – | – | – | – | – | – | – | inhibition at 3.9 µg/mL ([1]; Candida albicans, ATCC10231, 3.9 μg∙mL^−1, 48 h, read-out: Inhibition percentage against C. albicans ATCC 10231): 100%; inhibition at 7.8 µg/mL ([1]; Candida albicans, ATCC10231, 7.8 μg∙mL^−1, 48 h, read-out: Inhibition percentage against C. albicans ATCC 10231): 100%; inhibition at 15.6 µg/mL ([1]; Candida albicans, ATCC10231, 15.6 μg∙mL^−1, 48 h, read-out: Inhibition percentage against C. albicans ATCC 10231): 100%; inhibition at 62.5 µg/mL ([1]; Candida albicans, ATCC10231, 62.5 μg∙mL^−1, 48 h, read-out: Inhibition percentage against C. albicans ATCC 10231): 100%; inhibition at 125 µg/mL ([1]; Candida albicans, ATCC10231, 125 μg∙mL^−1, 48 h, read-out: Inhibition percentage against C. albicans ATCC 10231): 100%; inhibition at 250 µg/mL ([1]; Candida albicans, ATCC10231, 250 μg∙mL^−1, 48 h, read-out: Inhibition percentage against C. albicans ATCC 10231): 100%; MIC50 ([1]; Candida albicans, ATCC10231, C. albicans ATCC 10231, read-out: MIC50 (minimum concentration to inhibit 50% of fungal growth), C. albicans): 0.25 µg/mL (≈ 0.271 µM); inhibition at 3.9 µg/mL ([2]; Cryptococcus neoformans, ATCC32264, 3.9 μg∙mL^−1, 48 h, read-out: Inhibition percentage against C. neoformans ATCC 32264): 100%; inhibition at 7.8 µg/mL ([2]; Cryptococcus neoformans, ATCC32264, 7.8 μg∙mL^−1, 48 h, read-out: Inhibition percentage against C. neoformans ATCC 32264): 100%; inhibition at 15.6 µg/mL ([2]; Cryptococcus neoformans, ATCC32264, 15.6 μg∙mL^−1, 48 h, read-out: Inhibition percentage against C. neoformans ATCC 32264): 100%; inhibition at 31.2 µg/mL ([2]; Cryptococcus neoformans, ATCC32264, 31.2 μg∙mL^−1, 48 h, read-out: Inhibition percentage against C. neoformans ATCC 32264): 100%; inhibition at 62.5 µg/mL ([2]; Cryptococcus neoformans, ATCC32264, 62.5 μg∙mL^−1, 48 h, read-out: Inhibition percentage against C. neoformans ATCC 32264): 100%; inhibition at 125 µg/mL ([2]; Cryptococcus neoformans, ATCC32264, 125 μg∙mL^−1, 48 h, read-out: Inhibition percentage against C. neoformans ATCC 32264): 100%; inhibition at 250 µg/mL ([2]; Cryptococcus neoformans, ATCC32264, 250 μg∙mL^−1, 48 h, read-out: Inhibition percentage against C. neoformans ATCC 32264): 100%; MIC50 ([2]; Cryptococcus neoformans, ATCC32264, C. neoformans ATCC 32264, read-out: MIC50 (minimum concentration to inhibit 50% of fungal growth), C. neoformans): 0.5 µg/mL (≈ 0.541 µM)
